According to publication PMC6660600, “Odorant Inhibition in Mosquito Olfaction” (iScience, 2019):

What was measured:
Assay in all cases: voltage clamp of Xenopus oocytes
Assay type in all cases: cell-based
[1] = molecular target: T1, CquiOR32-CquiOrco (Culex quinquefasciatus, UniProt A0A3S7SHH6); conditions: inhibitor (reverse current), coexpressed with CquiOrco
T1 construct: gene OR32; full-length OR coexpressed with Orco in Xenopus oocytes; heteromeric ligand-gated cation channel; with Odorant receptor coreceptor Orco
T1 sequence (A0A3S7SHH6 1-397): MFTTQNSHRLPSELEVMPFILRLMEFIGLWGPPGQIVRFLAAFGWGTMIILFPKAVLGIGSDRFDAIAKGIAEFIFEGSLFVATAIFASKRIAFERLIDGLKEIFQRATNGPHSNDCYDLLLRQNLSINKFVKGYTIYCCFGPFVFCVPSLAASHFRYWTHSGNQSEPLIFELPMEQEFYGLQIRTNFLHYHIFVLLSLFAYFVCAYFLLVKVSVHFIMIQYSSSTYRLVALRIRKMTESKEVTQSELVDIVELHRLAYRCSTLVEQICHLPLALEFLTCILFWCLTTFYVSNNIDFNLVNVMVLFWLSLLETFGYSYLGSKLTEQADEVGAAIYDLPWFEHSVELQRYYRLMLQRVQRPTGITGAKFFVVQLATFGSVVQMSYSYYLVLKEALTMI
T1 sequence (Q309I4 1-480 partner): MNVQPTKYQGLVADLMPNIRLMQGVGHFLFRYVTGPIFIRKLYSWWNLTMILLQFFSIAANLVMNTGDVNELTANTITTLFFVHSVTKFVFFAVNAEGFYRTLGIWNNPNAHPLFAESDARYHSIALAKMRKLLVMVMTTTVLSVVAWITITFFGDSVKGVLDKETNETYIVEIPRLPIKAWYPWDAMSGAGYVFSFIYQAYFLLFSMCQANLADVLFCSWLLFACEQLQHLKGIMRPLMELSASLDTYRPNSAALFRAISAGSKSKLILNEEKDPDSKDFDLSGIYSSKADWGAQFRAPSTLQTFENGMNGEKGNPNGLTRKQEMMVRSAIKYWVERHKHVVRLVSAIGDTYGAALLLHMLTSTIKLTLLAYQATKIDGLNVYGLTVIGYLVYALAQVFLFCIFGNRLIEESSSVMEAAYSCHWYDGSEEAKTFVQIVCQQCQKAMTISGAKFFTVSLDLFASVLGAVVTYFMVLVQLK

[2] = molecular target: T1, CquiOR32-CquiOrco; conditions: agonist (inward current), absolute value, coexpressed with CquiOrco
[3] = molecular target: T2, CquiOrco (Culex quinquefasciatus, UniProt Q309I4); conditions: Orco agonist; Orco expressed alone
T2 construct: full-length Orco expressed alone in Xenopus oocytes
T2 sequence (Q309I4 1-480): T1 sequence (Q309I4 1-480 partner)

[4] = molecular target: T1, CquiOR32-CquiOrco; conditions: agonist (inward current), dose-dependent, coexpressed with CquiOrco
[5] = molecular target: T1, CquiOR32-CquiOrco; conditions: inhibitor (reverse current), absolute value, coexpressed with CquiOrco

SMILES: CC12CCC(C1)C(C)(C)C2=O (stereo not drawn) [FEN, fenchone]
- reverse current ([1]; 1 mM (Figure 1A)): eucalyptol, fenchone, DEET, picaridin, IR3535, PMD, and other compounds generated currents in reverse direction

SMILES: CCC(C)=O [2-butanone]
- inward current at 1 mM [2]: 45 ± 7 nA

SMILES: CC(=O)c1ccccc1 [acetophenone]
- inward current at 1 mM [2]: 58 ± 12 nA

SMILES: CCC(C)OC(=O)N1CCCCC1CCO (stereo not drawn) [picaridin]
- reverse current ([1]; 1 mM (Figure 1A)): eucalyptol, fenchone, DEET, picaridin, IR3535, PMD, and other compounds generated currents in reverse direction

SMILES: CCc1ccc(NC(=O)CSc2nnc(-c3cccnc3)n2CC)cc1 [VUAA-1]
- current [3]: Response of a CquiOrco-expressing oocyte to Orco agonist, VUAA-1, is displayed in an inset.

SMILES: CCC1CCC(=O)O1 (stereo not drawn) [γ-hexalactone]
- inward current at 1 mM [2]: 115 ± 14 nA

SMILES: CC1=NCCS1 [2MT, 2-methyl-2-thiazoline]
- inward current ([4]; 1 mM (Figure 1A)): various odorants, including cyclohexanone, methyl salicylate, and 2-methyl-2-thiazoline

SMILES: CC12CCC(CC1)C(C)(C)O2 [EUC, eucalyptol]
- reverse current ([1]; dose-dependent, also reduces methyl salicylate response, proposed negative allosteric modulator): eucalyptol generated currents in the reverse direction

SMILES: OCCc1ccccc1 [2-phenylethanol]
- inward current at 1 mM [2]: 44 ± 9 nA

SMILES: CC1=CCC(=C(C)C)CC1 [terpinolene]
- reverse current at 1 mM [5]: 38 ± 8 nA

SMILES: CC1=CC=C(C(C)C)CC1 [α-terpinene]
- reverse current at 1 mM [5]: 43 ± 5 nA

SMILES: COc1ccccc1O [guaiacol]
- inward current at 1 mM [2]: 101 ± 11 nA

SMILES: COC(=O)c1ccccc1O [MS, methyl salicylate]
- inward current [4]: Methyl salicylate elicited inward currents, and eucalyptol generated currents in the reverse direction

SMILES: CCN(CC)C(=O)c1cccc(C)c1 [DEET]
- reverse current ([1]; 1 mM (Figure 1A)): eucalyptol, fenchone, DEET, picaridin, IR3535, PMD, and other compounds generated currents in reverse direction

SMILES: O=C1CCCCC1 [CYC, cyclohexanone]
- inward current ([4]; 1 mM (Figure 1A)): various odorants, including cyclohexanone, methyl salicylate, and 2-methyl-2-thiazoline
